Data set [1] in a line: Stability in monkey liver microsomes at 1 uM measured up to 60 mins in presence of NADPH by LC-MS/MS analysis. The class given is ADME, Macaca mulatta, Microsome. Conditions: rhesus monkey, 1 h. (Liver microsomes are a subcellular fraction often used to study metabolism.)
For the next data set, the target named is Cytochrome P450 3A4 (Homo sapiens, UniProt P08684). Briefly: Inhibition of CYP3A4 (unknown origin) at upto 100 uM. The class given is ADME.
Data set [2] can be described thus: Stability in mouse plasma at 1 uM measured upto 120 mins by LC-MS/MS analysis. Conditions: 2 h; call rule not given here. The class given is ADME, cell-free.
For data set [3], the system named is Pseudomonas aeruginosa. Briefly: Antibacterial activity against Pseudomonas aeruginosa infected in BalbC mouse model of Septicaemia infection assessed as survival rate at 4 mg/kg administered 30 mins post infection and measured after 7 days relative to control. The class given is functional. The note with it: 168 h, time 7 day.
Data set [4] can be described thus: AUC in male Sprague-Dawley rat at 2 mg/kg by LC-MS/MS analysis. The class given is ADME, organism-based. Conditions: in vivo.
The target in the next data set is T1, Cytochrome P450 2C8 (Homo sapiens, UniProt P10632).
T1 sequence (P10632 whole entry): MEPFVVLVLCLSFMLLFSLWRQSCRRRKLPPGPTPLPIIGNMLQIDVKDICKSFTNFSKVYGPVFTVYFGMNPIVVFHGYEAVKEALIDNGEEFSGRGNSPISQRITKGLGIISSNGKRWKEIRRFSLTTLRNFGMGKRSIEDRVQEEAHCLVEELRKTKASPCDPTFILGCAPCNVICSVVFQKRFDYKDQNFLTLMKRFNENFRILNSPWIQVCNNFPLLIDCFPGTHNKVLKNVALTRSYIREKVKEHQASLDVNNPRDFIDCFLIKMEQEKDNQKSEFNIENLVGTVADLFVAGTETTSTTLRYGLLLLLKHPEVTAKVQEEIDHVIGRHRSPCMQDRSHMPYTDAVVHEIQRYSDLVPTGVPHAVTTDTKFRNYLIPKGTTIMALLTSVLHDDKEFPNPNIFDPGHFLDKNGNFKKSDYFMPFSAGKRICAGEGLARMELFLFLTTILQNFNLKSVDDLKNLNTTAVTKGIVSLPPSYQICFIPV
Briefly: Inhibition of CYP2C8 (unknown origin) at upto 100 uM. The class given is ADME.

The next data set addresses Cytochrome P450 2C9 (Homo sapiens, UniProt P11712). Briefly: Inhibition of CYP2C9 (unknown origin) at upto 100 uM. The class given is ADME.
The nature of data set [5]: Stability in dog microsomes at 1 uM measured up to 60 mins in presence of NADPH by LC-MS/MS analysis. The class given is ADME, Canis lupus familiaris, Liver, Microsome. Conditions: 1 h.
The target in a further data set is T2, Cytochrome P450 1A2 (Homo sapiens, UniProt P05177).
T2 sequence (P05177 whole entry): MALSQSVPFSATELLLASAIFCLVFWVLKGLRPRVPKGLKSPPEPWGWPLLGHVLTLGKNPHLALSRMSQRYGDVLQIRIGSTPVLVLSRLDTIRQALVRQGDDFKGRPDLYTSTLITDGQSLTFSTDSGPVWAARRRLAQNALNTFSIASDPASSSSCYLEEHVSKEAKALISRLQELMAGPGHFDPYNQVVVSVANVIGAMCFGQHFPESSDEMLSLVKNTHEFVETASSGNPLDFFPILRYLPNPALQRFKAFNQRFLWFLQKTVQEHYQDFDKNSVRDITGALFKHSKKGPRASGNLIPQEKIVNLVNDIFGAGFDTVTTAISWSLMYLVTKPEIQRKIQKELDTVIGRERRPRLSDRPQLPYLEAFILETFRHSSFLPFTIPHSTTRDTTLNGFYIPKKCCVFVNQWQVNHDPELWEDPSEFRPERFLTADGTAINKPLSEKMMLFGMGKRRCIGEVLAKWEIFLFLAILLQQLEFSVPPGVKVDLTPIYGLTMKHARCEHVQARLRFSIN
The experiment in a line: Inhibition of CYP1A2 (unknown origin) at upto 100 uM. The class given is ADME.

Data set [6] in a line: Stability in rat liver microsomes at 1 uM measured up to 60 mins in presence of NADPH by LC-MS/MS analysis. The class given is ADME, Microsome. The note with it: 1 h.
The next data set has as its target T3, Cytochrome P450 2B6 (Homo sapiens, UniProt P20813).
T3 sequence (P20813 whole entry): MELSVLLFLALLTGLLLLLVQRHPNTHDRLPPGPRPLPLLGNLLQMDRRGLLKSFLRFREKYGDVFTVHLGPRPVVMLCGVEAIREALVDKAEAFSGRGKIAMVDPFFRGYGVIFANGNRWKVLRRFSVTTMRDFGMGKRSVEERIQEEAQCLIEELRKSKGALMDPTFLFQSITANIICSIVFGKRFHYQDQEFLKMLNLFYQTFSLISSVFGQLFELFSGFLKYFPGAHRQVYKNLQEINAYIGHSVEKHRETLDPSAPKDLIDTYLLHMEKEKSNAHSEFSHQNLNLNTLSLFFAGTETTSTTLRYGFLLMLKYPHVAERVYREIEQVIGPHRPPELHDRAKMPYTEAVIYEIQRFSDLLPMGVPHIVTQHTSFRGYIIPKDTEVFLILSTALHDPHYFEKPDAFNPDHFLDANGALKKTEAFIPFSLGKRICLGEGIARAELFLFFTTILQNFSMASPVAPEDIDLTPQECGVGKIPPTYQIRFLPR
Briefly: Inhibition of CYP2B6 (unknown origin) at upto 100 uM. The class given is ADME.

Data set [7] concerns Pseudomonas aeruginosa. Briefly: Antibacterial activity against Pseudomonas aeruginosa infected in BalbC mouse model of Septicaemia infection assessed as survival rate at 8 mg/kg administered 30 mins post infection and measured after 4 days relative to control. The class given is functional. Conditions: 96 h, time 4 day.
Data set [8] is described as follows: Stability in human liver microsomes at 1 uM measured up to 60 mins in presence of NADPH by LC-MS/MS analysis. The class given is ADME, Microsome. Conditions: 1 h.
Data set [9] is described as follows: Stability in monkey plasma at 1 uM measured upto 120 mins by LC-MS/MS analysis. The class given is ADME, cell-free, Macaca mulatta. The note with it: rhesus monkey, 2 h.
A further data set addresses Cytochrome P450 2C19 (Homo sapiens, UniProt P33261). Briefly: Inhibition of CYP2C19 (unknown origin) at upto 100 uM. The class given is ADME.
The nature of data set [10]: Plasma protein binding in human at 1 uM incubated for 6 hrs by LC-MS/MS analysis. The class given is ADME, cell-free.
For a further data set, the target named is Cytochrome P450 2D6 (Homo sapiens, UniProt P10635). Briefly: Inhibition of CYP2D6 (unknown origin) at upto 100 uM. The class given is ADME.
Sequence of Cytochrome P450 2D6 (P10635 whole entry): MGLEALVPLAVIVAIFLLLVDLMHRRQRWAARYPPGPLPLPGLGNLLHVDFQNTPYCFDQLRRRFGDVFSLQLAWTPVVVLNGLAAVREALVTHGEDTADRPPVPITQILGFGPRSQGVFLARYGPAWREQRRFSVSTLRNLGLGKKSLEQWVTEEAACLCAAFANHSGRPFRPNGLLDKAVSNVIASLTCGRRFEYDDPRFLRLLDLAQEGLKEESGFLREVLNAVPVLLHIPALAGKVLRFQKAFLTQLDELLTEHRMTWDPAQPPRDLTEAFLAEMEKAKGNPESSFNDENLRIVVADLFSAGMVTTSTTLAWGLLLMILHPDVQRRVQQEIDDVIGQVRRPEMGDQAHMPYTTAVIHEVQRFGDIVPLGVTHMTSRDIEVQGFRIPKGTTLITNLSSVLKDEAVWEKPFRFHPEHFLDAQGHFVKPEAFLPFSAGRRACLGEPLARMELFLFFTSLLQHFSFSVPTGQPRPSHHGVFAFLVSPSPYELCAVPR
Data set [11] in a line: Stability in rat plasma at 1 uM measured upto 120 mins by LC-MS/MS analysis. The class given is ADME, cell-free. The note with it: 2 h.
The test system of a further data set is Huh-7. Briefly: Cytotoxicity against human Huh-7 cells at 300 ug/ml relative to control. The class given is toxicity, cell-based. Conditions: at 300 µg/mL.
Data set [12] in a line: Stability in mouse liver microsomes at 1 uM measured up to 60 mins in presence of NADPH by LC-MS/MS analysis. Conditions: 1 h. The class given is ADME, Microsome.
Data set [13] is described as follows: Stability in dog plasma at 1 uM measured upto 120 mins by LC-MS/MS analysis. The note with it: 2 h. The class given is ADME, cell-free, Canis lupus familiaris.
Data set [14] has as its system Pseudomonas aeruginosa. The experiment in a line: Antibacterial activity against Pseudomonas aeruginosa infected in BalbC mouse model of Septicaemia infection assessed as survival rate at 128 mg/kg administration starting at 0.5 to 2 hrs post infection and measured after 6 days relative to control. Conditions: 144 h, time 6 day. The class given is functional.
Data set [15] deals with Pseudomonas aeruginosa. Briefly: Antibacterial activity against Pseudomonas aeruginosa infected in BalbC mouse model of Septicaemia infection assessed as survival rate at 128 mg/kg administration starting at 0.5 to 2 hrs post infection and measured after 1 day relative to control. The class given is functional. The note with it: 24 h.

Sequence of Cytochrome P450 2C9 (P11712 whole entry): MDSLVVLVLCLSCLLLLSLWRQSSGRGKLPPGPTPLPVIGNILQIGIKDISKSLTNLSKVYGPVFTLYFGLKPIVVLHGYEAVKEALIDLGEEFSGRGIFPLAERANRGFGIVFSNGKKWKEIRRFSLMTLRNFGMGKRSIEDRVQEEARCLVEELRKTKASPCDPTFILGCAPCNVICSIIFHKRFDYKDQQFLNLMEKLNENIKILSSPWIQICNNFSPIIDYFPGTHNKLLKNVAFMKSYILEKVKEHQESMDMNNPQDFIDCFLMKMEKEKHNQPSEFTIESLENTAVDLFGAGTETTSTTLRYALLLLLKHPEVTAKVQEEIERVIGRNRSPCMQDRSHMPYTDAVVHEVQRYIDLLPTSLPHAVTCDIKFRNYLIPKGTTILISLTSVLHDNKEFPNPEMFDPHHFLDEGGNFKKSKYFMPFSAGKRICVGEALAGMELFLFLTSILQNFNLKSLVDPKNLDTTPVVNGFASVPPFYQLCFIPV
Sequence of Cytochrome P450 2C19 (P33261 whole entry): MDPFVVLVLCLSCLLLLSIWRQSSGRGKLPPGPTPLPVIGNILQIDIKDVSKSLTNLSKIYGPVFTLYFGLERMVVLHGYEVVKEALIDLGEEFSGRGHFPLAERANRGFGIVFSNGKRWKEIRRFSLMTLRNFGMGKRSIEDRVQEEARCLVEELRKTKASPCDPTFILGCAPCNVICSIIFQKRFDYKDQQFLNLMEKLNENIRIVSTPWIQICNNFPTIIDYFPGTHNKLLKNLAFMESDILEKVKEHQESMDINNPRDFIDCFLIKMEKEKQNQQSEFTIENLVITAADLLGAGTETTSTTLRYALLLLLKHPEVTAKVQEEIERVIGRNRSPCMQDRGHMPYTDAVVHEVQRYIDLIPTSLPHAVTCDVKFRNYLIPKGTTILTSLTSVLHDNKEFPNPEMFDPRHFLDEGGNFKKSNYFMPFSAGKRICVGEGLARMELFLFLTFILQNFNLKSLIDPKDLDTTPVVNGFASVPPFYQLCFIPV
Sequence of Cytochrome P450 3A4 (P08684 whole entry): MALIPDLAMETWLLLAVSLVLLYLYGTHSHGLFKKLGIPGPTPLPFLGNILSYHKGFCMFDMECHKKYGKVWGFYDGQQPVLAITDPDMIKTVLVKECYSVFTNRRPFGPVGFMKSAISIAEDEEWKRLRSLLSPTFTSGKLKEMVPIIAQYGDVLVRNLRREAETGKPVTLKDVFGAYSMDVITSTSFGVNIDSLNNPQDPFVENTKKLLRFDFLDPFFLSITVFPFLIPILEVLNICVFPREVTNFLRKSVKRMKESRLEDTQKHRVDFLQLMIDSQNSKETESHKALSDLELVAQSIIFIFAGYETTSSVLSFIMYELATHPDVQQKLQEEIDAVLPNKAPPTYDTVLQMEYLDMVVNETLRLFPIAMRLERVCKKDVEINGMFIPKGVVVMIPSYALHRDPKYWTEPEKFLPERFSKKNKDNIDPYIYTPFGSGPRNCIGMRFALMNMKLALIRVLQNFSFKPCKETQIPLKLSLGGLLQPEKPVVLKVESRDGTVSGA

As a reminder, the AUC is concentration integrated over time. On to `Cc1sc(N)nc1/C(=N/O[C@@H](COc1ccc(C(=N)N[C@@H]2CCNC2)cc1)C(=O)O)C(=O)N[C@@H]1C(=O)N(OS(=O)(=O)O)C1(C)C`, for which the Stability entry in [1], in data set [2], in [5], in data set [6], in data set [8] and in data set [9] was “Stable” each time. The Stability entry in [11], in data set [12] and in data set [13] was “Stable” in each case. Also, the “inhibition (INH)” value against Cytochrome P450 3A4, against Cytochrome P450 2C8, at Cytochrome P450 2C9, against Cytochrome P450 1A2, against Cytochrome P450 2B6 and against Cytochrome P450 2C19 was “Not Active” each time. On Cytochrome P450 2D6, the “inhibition (INH)” value is “Not Active”. In addition, in the data set with Pseudomonas aeruginosa [3], the survival at 4 mg/kg worked out at 30%. In addition, the AUC in data set [4] was 2790 ng·h/mL. The survival at 8 mg/kg in the data set on Pseudomonas aeruginosa [7] was 60%. The fraction unbound at 6 h, 1 µM in [10] (read-out: PPB (converted)) is 0.383. The Activity in the data set with Huh-7 stood at 60%.

As to `C[C@H]1[C@H](NC(=O)/C(=N\OC(C)(C)C(=O)O)c2csc(N)n2)C(=O)N1S(=O)(=O)O` [AZTREONAM], the survival at 128 mg/kg is 90% in the data set on Pseudomonas aeruginosa [14] and 100% in the data set on Pseudomonas aeruginosa [15]. For the same compound, the Stability result in [1], in data set [2], in [5], in data set [6], in data set [8] and in data set [9] was “Stable” each time. For the same compound, the Stability result in data set [10] (6 h, 1 µM) is reported as “Stable”; in data set [11], “Stable”; in data set [12], “Stable”; in data set [13], “Stable”. The “inhibition (INH)” value on Cytochrome P450 3A4, against Cytochrome P450 2C8, on Cytochrome P450 2C9, at Cytochrome P450 1A2, against Cytochrome P450 2B6 and on Cytochrome P450 2C19 was “Not Active” each time. For the same compound, the “inhibition (INH)” value against Cytochrome P450 2D6 was “Not Active”. Further, in [4], the AUC turned out to be 2410 ng·h/mL. This compound also showed an Activity in the data set with Huh-7 of 60%.

The values above are taken from ChEMBL document CHEMBL5579794, “Improved synthesis and evaluation of preclinical pharmacodynamic parameters of a new monocyclic β-lactam DPI-2016” (Bioorg Med Chem Lett, 2024).
